From paper PMC11219871, “Epigenetic-based differentiation therapy for Acute Myeloid Leukemia” (Nature Communications, 2024)
Read-outs that look alike come from different tables or passages of the source.

Key:
[1] = tested on: M-07e; assay: Cell proliferation assay: GI50; assay type: cell-based
Method: (§1) Cell proliferation was analyzed using the CellTiter 96 Aqueous One Solution Cell Proliferation Assay (Promega, Madison, WI). This is a colorimetric method for determining the number of viable cells in proliferation. For the assay, suspension cells were cultured in triplicate at a density of 1 × 10^6 cells/mL in 96-well plates (100.000 cells/well, 100 µL/well), using only the 60 inner wells to avoid any border effects. After 48 h of treatment with different doses of each compound (0, 0.001, 0.01, 0.1, 0.2, 0.4, 0.6, 0.8, 1, 2, 3, 4, 5 and 10 µM), the plates were centrifuged at 800 g for 10 min followed by removal of the medium. Then, the cells were incubated with 100 μL/well of medium and 20 μL/well of CellTiter 96 Aqueous One Solution reagent for 1–3 h. The absorbance was recorded at 490 and 650 nm as reference wavelengths using 96-well plate readers until the absorbance of the control cells without treatment was approximately 0.8 AU. The background absorbance was measured in wells with only cell line medium and solution reagent. First, the average of the absorbance from the control wells was subtracted from all other absorbance values. Data were calculated as the percentage of total absorbance of treated cells/absorbance of non-treated cells. The GI50 values of the different compounds were determined using non-linear regression plots made with GraphPad Prism v5 software.

[2] = tested on: UT-7; assay: Cell proliferation assay: GI50; assay type: cell-based
Method: as §1

[3] = tested on: KASUMI-1; assay: Cell proliferation assay: GI50; assay type: cell-based
Method: as §1

[4] = tested on: MONO-MAC-6; assay: Cell proliferation assay: GI50; assay type: cell-based
Method: as §1

[5] = tested on: OCI-AML3; assay: Cell proliferation assay: GI50; assay type: cell-based
Method: as §1

[6] = tested on: TF-1; assay: Cell proliferation assay: GI50; assay type: cell-based
Method: as §1

[7] = tested on: HEL; assay: Cell proliferation assay: GI50; assay type: cell-based
Method: as §1

[8] = tested on: primary AML patient samples; assay: Differentiation assay, CD11b flow cytometry in primary samples; assay type: cell-based, human; settings: for CD11b-positive cells (%): daily 48 h
Method: Next, the cells were washed twice with phosphate-buffered saline (PBS) and resuspended in 1X Binding Buffer at a concentration of 1 × 10^6 cells/mL. An 8-µL aliquot of APC-CD11b (BD Pharmingen, Franklin Lakes, NJ, USA) and 1 µL of FITC annexin-V (AV) (BD Pharmingen, Franklin Lakes, NJ, USA) antibodies were added and incubated for 15 min at room temperature in the dark. Finally, after the addition of 400 µL of 1X Binding Buffer to each tube, samples were collected on a BD FACSCanto flow cytometer (Becton Dickinson, San Jose, CA, USA) and analyzed using FlowJo software.
Peripheral blood (PB) specimens were obtained from preliminarily diagnosed AML patients who had not received any treatment before specimens were collected. All patients gave informed consent for their participation in this study, which was approved by the Clinical Research Ethics Committee of Clínica Universidad de Navarra. Written informed consent was obtained from each participant. PB was mixed with an ammonium chloride-potassium (ACK) buffer lysis (0.15 mol/L NH4Cl, 10 mmol/L KHCO3, 0.1 mmol/L ethylenediaminetetraacetic acid, pH 7.2) at a 1:2 volume ratio by gentle inversion, incubated for 10 min and centrifuged at 200 g for 10 min. The cell pellet was washed twice with PBS and finally resuspended in EGM2 medium (Cambrex Bioscience, Walkersville, MD). EGM2 contains 2% fetal calf serum, hydrocortisone, heparin, antibiotics, epidermal growth factor, human fibroblast growth factor, insulin-like growth factor, vascular endothelial growth factor, and ascorbic acid. The cells were plated at 1 × 10^6 cells/mL and treated daily with 200 and 500 nM of CM-444 and CM-1758 for 48 h. Next, the differentiation assay was performed as described above.

[9] = tested on: MOLM-13; assay: Cell proliferation assay: GI50; assay type: cell-based, human
In short: (§2)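 Suspension cells at 1 × 10^6 cells/mL were treated in triplicate, then incubated 1–3 h with MTS reagent (CellTiter 96 AQueous One) for colorimetric viable-cell read-out. After medium-only background subtraction, absorbance was expressed as % of untreated cells, and GI50 was fitted by non-linear regression.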

[10] = tested on: ML-2; assay: Cell proliferation assay: GI50; assay type: cell-based, human
In short: as §2

[11] = tested on: HL-60; assay: Cell proliferation assay: GI50; assay type: cell-based, human; settings: read-out: GI50
In short: as §2

[12] = tested on: MV4-11; assay: Cell proliferation assay: GI50; assay type: cell-based, human
In short: as §2

GI50 ([5]; Homo sapiens, OCI-AML-3, OCI-AML3, 48 h): > 10 µM
GI50 ([5]; Homo sapiens, OCI-AML-3, OCI-AML3, replicates 1-3): > 10 µM
GI50 ([5]; OCI-AML3, replicates 1-3): > 10 µM
GI50 ([9]; Homo sapiens, MOLM-13, 48 h): > 10 µM
GI50 ([9]; Homo sapiens, MOLM-13, MOLM-13, replicates 1-3): > 10 µM
GI50 ([9]; MOLM-13, replicates 1-3): > 10 µM
GI50 ([11]; HL-60, replicates 1-3): > 10 µM
GI50 ([11]; Homo sapiens, HL-60, 48 h): > 10 µM
GI50 ([11]; Homo sapiens, HL-60, HL-60, replicates 1-3): > 10 µM
GI50 ([12]; Homo sapiens, MV4-11, 48 h): > 10 µM
GI50 ([12]; Homo sapiens, MV4-11, MV4-11, replicates 1-3): > 10 µM
GI50 ([12]; MV4-11, replicates 1-3): > 10 µM
Structure (SMILES): CC1=C(/C=C/C(C)=C/C=C/C(C)=C/C(=O)O)C(C)(C)CCC1 [ATRA, all-trans retinoic acid, reference compound]
GI50 ([1]; 48 h): > 10 µM
GI50 ([1]; replicates 1-3): > 10 µM
GI50 ([2]; Homo sapiens, UT7, 48 h, UT-7, 48 h): > 10 µM
GI50 ([2]; Homo sapiens, UT7, UT-7, replicates 1-3): > 10 µM
GI50 ([2]; UT-7, replicates 1-3): > 10 µM
GI50 ([3]; Homo sapiens, Kasumi 1, 48 h, KASUMI-1, 48 h): > 10 µM
GI50 ([3]; Homo sapiens, Kasumi 1, KASUMI-1, replicates 1-3): > 10 µM
GI50 ([3]; KASUMI-1, replicates 1-3): > 10 µM
GI50 ([4]; Homo sapiens, MONO-MAC-6, 48 h): > 10 µM
GI50 ([4]; Homo sapiens, MONO-MAC-6, MONO-MAC-6, replicates 1-3): > 10 µM
GI50 ([4]; MONO-MAC-6, replicates 1-3): > 10 µM
GI50 ([6]; Homo sapiens, TF-1, 48 h): > 10 µM
GI50 ([6]; Homo sapiens, TF-1, TF-1, replicates 1-3): > 10 µM
GI50 ([6]; TF-1, replicates 1-3): > 10 µM
GI50 ([7]; Homo sapiens, 48 h): > 10 µM
GI50 ([7]; Homo sapiens, replicates 1-3): > 10 µM
GI50 ([7]; replicates 1-3): > 10 µM
CD11b (%) ([8]; primary AML patient sample 1 (Figure 2C)): 26.1%
CD11b (%) ([8]; primary AML patient sample 2 (Figure 2C)): 17.45%
CD11b (%) ([8]; primary AML patient sample 3 (Figure 2C)): 10.26%
CD11b (%) ([8]; primary AML patient sample 4 (Figure 2C)): 25.36%
CD11b (%) ([8]; primary AML patient sample 5 (Figure 2C)): 15.2%
CD11b (%) ([8]; primary AML patient sample 6 (Figure 2C)): 16.3%
CD11b (%) ([8]; primary AML patient sample 7 (Figure 2C)): 29.3%
CD11b (%) ([8]; primary AML patient sample 8 (Figure 2C)): 13.25%
CD11b-positive cells (%) ([8]; sample AML-1, 2 µM): 26.1%
CD11b-positive cells (%) ([8]; sample AML-2, 2 µM): 17.5%
CD11b-positive cells (%) ([8]; sample AML-3, 2 µM): 10.3%
CD11b-positive cells (%) ([8]; sample AML-4, 2 µM): 25.4%
CD11b-positive cells (%) ([8]; sample AML-5, 2 µM): 15.2%
CD11b-positive cells (%) ([8]; sample AML-6, 2 µM): 16.3%
CD11b-positive cells (%) ([8]; sample AML-7, 2 µM): 29.3%
CD11b-positive cells (%) ([8]; sample AML-8, 2 µM): 13.3%
GI50 ([10]; Homo sapiens, ML-2, 48 h): > 10 µM
GI50 ([10]; Homo sapiens, ML-2, ML-2, replicates 1-3): > 10 µM
GI50 ([10]; ML-2, replicates 1-3): > 10 µM
